Data: PMC10044120, “Potent and selective covalent inhibition of the papain-like protease from SARS-CoV-2” (Nature Communications, 2023)
Where two headings read alike, the source gives them in different places.

Columns and labels:
SARS-CoV-2 USA-WA1/2020 = assay: CPE assay, neutral red, Vero E6 cells with 2 μM CP-100356, USA-WA1/2020; type: cell-based; conditions: for Percent Cytopathic Effect (Neutral Red): USA-WA1/2020
in vitro = conditions: human

With `COC(=O)/C=C/C(=O)NNC(=O)CCc1ccccc1C(=O)N[C@H](C)c1cccc2ccccc12` [Compound 7, methyl(R,E)-4-(2-(3-(2-((1-(naphthalen-1 yl)ethyl)carbamoyl)phenyl)propanoyl)hydrazineyl)-4-oxobut-2-enoate] the CC50 (Vero E6 cells; Vero E6, 2 μM CP-100356, Delta rows) was > 10 µM, the CC50 (Vero E6 cells; Vero E6, 2 μM CP-100356, Omicron rows) was > 10 µM and the EC50 (SARS-CoV-2 USA-WA1/2020; Severe acute respiratory syndrome coronavirus 2, Vero C1008) was 0.068 µM. For the same compound, the “Percent Cytopathic Effect (Neutral Red)” value (SARS-CoV-2 USA-WA1/2020; 0.01 µM) was 90.5%, the “Percent Cytopathic Effect (Neutral Red)” value (SARS-CoV-2 USA-WA1/2020; 0.1 µM) was 41.8% and the “Percent Cytopathic Effect (Neutral Red)” value (SARS-CoV-2 USA-WA1/2020; 1 µM) was 46.4%. The “Percent Cytopathic Effect (Neutral Red)” value (SARS-CoV-2 USA-WA1/2020; 10 µM) was 13.5%, the CC50 (in vitro) was > 10 µM and the cytotoxicity at 0.01 µM (in vitro) was 8.4%. It also gave a cytotoxicity at 0.1 µM (in vitro) of 3.4%, a cytotoxicity at 1 µM (in vitro) of 0.326% and a cytotoxicity at 10 µM (in vitro) of 18.1%. It also gave a cytotoxicity at 0.01 µM (in vitro; Percent Cytotoxicity (Neutral Red), Caco-2, SARS2-740 (Delta set), 0.01 µM) of 0%, a cytotoxicity at 0.1 µM (in vitro; Percent Cytotoxicity (Neutral Red), Caco-2, SARS2-740 (Delta set), 0.1 µM) of 0% and a cytotoxicity at 1 µM (in vitro; Percent Cytotoxicity (Neutral Red), Caco-2, SARS2-740 (Delta set), 1 µM) of 8%. For the same compound, the cytotoxicity at 10 µM (in vitro; Percent Cytotoxicity (Neutral Red), Caco-2, SARS2-740 (Delta set), 10 µM) was 4.4%, the cytotoxicity at 0.01 µM (in vitro; Percent Cytotoxicity (Neutral Red), Caco-2, SARS2-740 (USA-WA1/2020 set), 0.01 µM) was 1.6% and the cytotoxicity at 0.1 µM (in vitro; Percent Cytotoxicity (Neutral Red), Caco-2, SARS2-740 (USA-WA1/2020 set), 0.1 µM) was 0%. It also gave a cytotoxicity at 1 µM (in vitro; Percent Cytotoxicity (Neutral Red), Caco-2, SARS2-740 (USA-WA1/2020 set), 1 µM) of 0% and a cytotoxicity at 10 µM (in vitro; Percent Cytotoxicity (Neutral Red), Caco-2, SARS2-740 (USA-WA1/2020 set), 10 µM) of 39.6%.
